Values after ≈ are worked out from the molar mass of the structure shown. Where no end group is shown, it is not given here.
Columns and labels:
[1] = DPPH• radical scavenging assay; conditions: relative concentration to reduce 50% of initial DPPH•; mean ± SD, n = 3
Description: The free radical-scavenger activity was determined by the DPPH^• assay, according to Oliveira et al.. Briefly, in a 96 well-plate, 19.4 µL of aqueous solutions of the peptides at different concentrations (100–0.1 µg/mL) was added per well. Then, 175 µL of an ethanolic solution of 2,2-diphenyl-1-picrylhydrazyl radical (DPPH^•, Merck) was added to the wells ([…]—90 µM for final concentration in the experiment). The absorbance was read at 515 nm (Multiskan SkyHigh multiplate reader, Thermo Fisher Scientific) in kinetic mode for 60 min and at room temperature. The percentage of remaining DPPH^• was plotted against the peptides’ concentrations and the amount of test compounds necessary to decrease by 50% the initial concentration of DPPH (RIC50) was calculated (GraphPad Prism 9.4.0, GraphPad Software). Quercetin (100–0.1 µg/mL in ethanol) was used as a positive control.
The DPPH^• radical scavenging activity determines the ability of an antiradical compound to neutralize DPPH^• radical to its reduced form (DPPH-H) and is usually expressed as the concentration of the compound required to reduce the DPPH^• radical by 50% (IC₅₀). […]

[2] = FRAP (ferric reducing antioxidant power) assay
Description: The antioxidant power of a given compound is not limited to its radical-scavenging activity. In fact, the ferric reducing antioxidant power (FRAP) assay, is a well-established test to measure a compound’s ability to act as a reductant in a colorimetric redox reaction, where ferric (Fe^3+) ions are reduced to the ferrous (Fe^2+) state in the acidic medium.
The ferric-reducing antioxidant power (FRAP) was determined using a FRAP kit (Sigma-Aldrich) with minor modifications to the manufacturer’s instructions. Briefly, in a 96-well plate, 5 µL of peptides’ aqueous solutions at different concentrations (50–0.05 µg/mL) was added per well. Then, 95 µL of the reaction cocktail (FRAP assay buffer, FeCl3 solution, and FRAP probe) was added to each well. The absorbance was measured at 594 nm in kinetic mode (Multiskan SkyHigh, Thermo Fisher Scientific) for 60 min, at 37 °C. A ferrous standard curve was plotted with Ferrous ammonium sulfate at 0, 4, 8, 12, 16, and 20 nmol/well, and the absorbances of each sample were compared to the standard curve. Quercetin (100–0.1 µg/mL in ethanol) was used as a positive control. All measurements were performed in three independent experiments. Data are shown as mean ± SD.

[3] = in vitro; assay type: cell-based, murine; conditions: for IC50 at 24 h: mouse
Description: RAW 264.7 (ATCC TIB-71) murine macrophage-like cells were cultured in high-glucose Dulbecco’s modified Eagle’s medium (DMEM, Sigma-Aldrich) supplemented with 10% fetal bovine serum (FBS, Corning) and 1% penicillin/streptomycin (Corning). Cells were grown under standard culture conditions in a 5% CO2 incubator at 37 °C (MCO-170AC incubator; PHC Corporation, Tokyo, Japan), and were sub-cultured every two or three days when it was noticed that the cells had reached around 80% confluence. The assays were performed in cell passages from passages 9 to 21 to avoid phenotypic and genetic instability. Unless otherwise stated, all treatments were carried out with DMEM supplemented with 1% penicillin/streptomycin only (serum-free conditions). The cytotoxicity of the peptides towards RAW 264.7 cells was evaluated using the colorimetric 3-(4,5-dimethylthiazol-2-yl)-2,5-diphenyl tetrazolium bromide (MTT) assay. The assay was performed according to Mosmann, with a few modifications. Briefly, cells were seeded in a 96-well plate at a density of 2.5 × 10^3 cells per well and incubated for 24 h (5% CO2, 37 °C). After the incubation period, the medium was removed and replaced with different concentrations of the peptides’ aqueous solutions diluted in fresh FBS-free DMEM to the final concentrations of 1–0.005 mg/mL in each well. Following another 24 h incubation period, 10 µL of a 5 mg/mL stock solution of 3-(4,5-Dimethylthiazol-2-yl)-2,5-diphenyltetrazolium bromide (MTT; Alfa Aesar) was added to each well, and the plate was incubated for 3 h (5% CO2, 37 °C). Dimethyl sulfoxide (DMSO, Thermo Fisher Scientific) was used to dissolve the formazan crystals formed by the intracellular reduction of MTT. The absorbance was measured at a dual wavelength of 570/690 nm using a Multiskan SkyHigh microplate reader (Thermo Fisher Scientific). The percentage of viable cells was calculated and the concentration of each peptide able to inhibit 50% of cell viability (IC50) was determined. The experiments were carried out in three independent assays, and the results are shown as mean ± standard deviation (SD).

[4] = test system: O2•− production in LPS-stimulated RAW 264.7 cells; test: Intracellular superoxide production (NBT assay) in LPS-stimulated macrophages; assay type: cell-based, murine; conditions: at 10 µg/mL
Description: Considering the link between oxidative stress and inflammation, both the antioxidant and the anti-inflammatory potential of the selected peptides was determined in cellulo using macrophage-like cells (RAW 264.7 cell line) stimulated with lypopolysaccharides (LPSs) from Escherichia coli. […] In other words, RAW 264.7 cells are activated by foreign stimuli like, e.g., exposure to LPSs. This activation is initiated by the binding of LPSs to cell membrane receptors, which triggers signaling pathways that will result in the generation of proinflammatory mediators (e.g., nitric oxide) and cytokines such as interleukin (IL)-6, IL-8, tumor necrosis factor-alpha (TNF)-α [41, 42]. Since proinflammatory mediators are held in several metabolic pathways, including the production of reactive oxygen species (ROS), e.g., the radical-anion superoxide (O2^•−), LPS exposure also leads to oxidative stress. […]
The potential inhibitory effect of the peptides on superoxide radical (O2^−) by RAW 264.7 cells activated by LPS (1 µg/mL) was evaluated according to Mitra et al. with some modifications. […] The absorbance was measured in a microplate reader at a dual wavelength of 620/700 nm. […] The experiments were performed in three independent assays and the results were expressed as a percentage of O2^- production. […]

[5] = test system: NO production in LPS-stimulated RAW 264.7 cells; test: Griess assay (nitric oxide production) in LPS-stimulated macrophages; assay type: cell-based, murine; conditions: at 10 µg/mL
Source text: The Griess assay is a classical indirect method to measure the production of nitric oxide through the quantification of nitrite anions. As previously mentioned, NO is an inflammatory biomarker that can be produced when LPS-activated macrophages produce proinflammatory mediators and cytokines, which in turn elicit the production of reactive species like ROS and the expression/activity of relevant enzymes, including the nitric oxide synthase (NOS).
The Nitrite Assay Kit (Griess Reagent, Sigma-Aldrich) was used to determine the influence of peptide treatments on nitric oxide production by RAW 264.7 cells activated by LPS (1 µg/mL). To this end, peptide solutions at different concentrations (50–3.12 µg/mL—serial dilution) in an FBS-free medium were used. Briefly, 7 × 10^4 RAW 264.7 cells per well were seeded in a 96-well plate and incubated for 24 h (5% CO2, 37 °C). On the next day, the medium was removed and replaced with different concentrations of the peptides. After another 24 h incubation period (5% CO2, 37 °C), 50 µL of culture supernatant was transferred to a 96-well plate. […] The absorbance was measured at 540 nm using a microplate reader (Multiskan SkyHigh, Thermo Scientific) A nitrite standard curve was plotted with nitrite standards at 0, 2, 4, 8, and 10 nmol/well, and the absorbances of each sample were compared to the standard curve. […]

[6] = molecular target: ACE-1 enzyme (Homo sapiens, UniProt P12821); test: ACE-1 inhibition assay (colorimetric kit)
Chain of ACE-1 enzyme (P12821 30-1306): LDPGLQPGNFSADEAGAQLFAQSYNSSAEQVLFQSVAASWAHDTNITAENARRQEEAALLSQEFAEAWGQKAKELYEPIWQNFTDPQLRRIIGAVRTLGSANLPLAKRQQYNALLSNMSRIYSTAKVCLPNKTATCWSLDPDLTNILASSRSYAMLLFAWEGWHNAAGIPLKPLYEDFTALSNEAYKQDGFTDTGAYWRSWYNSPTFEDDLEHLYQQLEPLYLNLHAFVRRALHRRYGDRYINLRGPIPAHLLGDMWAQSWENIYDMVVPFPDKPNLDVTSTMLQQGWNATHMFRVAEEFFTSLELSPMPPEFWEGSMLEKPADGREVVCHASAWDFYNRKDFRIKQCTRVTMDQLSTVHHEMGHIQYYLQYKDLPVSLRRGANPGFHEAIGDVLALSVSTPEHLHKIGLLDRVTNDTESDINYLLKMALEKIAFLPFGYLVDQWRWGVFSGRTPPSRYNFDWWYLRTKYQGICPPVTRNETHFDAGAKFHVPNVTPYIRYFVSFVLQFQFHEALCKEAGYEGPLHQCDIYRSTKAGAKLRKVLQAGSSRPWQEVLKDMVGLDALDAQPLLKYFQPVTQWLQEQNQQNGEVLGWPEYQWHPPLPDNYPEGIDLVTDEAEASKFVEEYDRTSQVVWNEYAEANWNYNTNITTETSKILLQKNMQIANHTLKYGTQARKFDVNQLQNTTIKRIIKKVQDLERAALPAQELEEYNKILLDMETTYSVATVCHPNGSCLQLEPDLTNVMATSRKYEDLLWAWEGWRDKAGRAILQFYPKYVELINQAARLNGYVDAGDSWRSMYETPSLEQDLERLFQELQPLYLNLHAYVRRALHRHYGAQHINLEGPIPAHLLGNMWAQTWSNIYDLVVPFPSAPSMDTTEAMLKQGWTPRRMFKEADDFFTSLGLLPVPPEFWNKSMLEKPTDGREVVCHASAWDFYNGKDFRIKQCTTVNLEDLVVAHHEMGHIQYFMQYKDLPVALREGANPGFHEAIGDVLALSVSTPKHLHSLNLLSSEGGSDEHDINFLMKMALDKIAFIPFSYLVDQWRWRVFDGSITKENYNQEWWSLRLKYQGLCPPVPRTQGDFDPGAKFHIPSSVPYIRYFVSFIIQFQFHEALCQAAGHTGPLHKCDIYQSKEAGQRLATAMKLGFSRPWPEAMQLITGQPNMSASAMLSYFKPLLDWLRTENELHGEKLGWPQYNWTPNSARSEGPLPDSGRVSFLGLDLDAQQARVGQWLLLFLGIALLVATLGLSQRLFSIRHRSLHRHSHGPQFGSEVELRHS
Description: Therefore, the ability of the LF-derived peptides to inhibit ACE-1 was evaluated.
The activity of the ACE-1 enzyme was measured using a colorimetric ACE-1 Inhibitor Screening Kit (Abcam) with minor modifications to the manufacturer’s instructions. Briefly, in a 96-well plate, 12.5 µL of peptide’s aqueous solutions at different concentrations (100–0.1 µg/mL) were added per well. Then, 20 µL of diluted ACE-1 enzyme solution was added to each well. The total volume of each well was adjusted to 100 µL and the plate was incubated at 37 °C for 15 min. After the incubation period, 25 µL of the reaction mixture (substrate mixture and ACE-1 assay buffer) were added to the samples, and the absorbance was read in kinetic mode at 345 nm for 60 min at 37 °C (Multiskan SkyHigh, Thermo Scientific). Captopril (22 ng/mL) was used as the positive control. The reaction inhibition percentage was calculated and the IC50 was determined (GraphPad Prism 9.4.0, GraphPad Software). The experiments were carried out in three independent assays and the results are expressed as mean ± SD.

[7] = test system: ACE-1; conditions: cited from earlier work
[8] = test system: spontaneously hypertensive rats; parameters: method as in PMID 16830788; conditions: cited from earlier work

Q: Which “DPPH Radical Scavenging Activity (RIC50 mol/mol DPPH)” value [1] does the source give for O=c1c(O)c(-c2ccc(O)c(O)c2)oc2cc(O)cc(O)c12 [Quercetin] here?
A: Its value is 0.09 ± 0.02 mol/mol DPPH.

Q: And the “FRAP (mM Ferrous Equivalents)” value ([2]; 0.05 µg/mL)?
A: The value was 0.85 ± 0.25 mM Ferrous Equivalents.

Q: And the “FRAP (mM Ferrous Equivalents)” value ([2]; 0.5 µg/mL)?
A: Its value is 1.40 ± 0.23 mM Ferrous Equivalents.

Q: And the “FRAP (mM Ferrous Equivalents)” value ([2]; 5 µg/mL)?
A: Its value is 8.02 ± 0.57 mM Ferrous Equivalents.

Q: And the “FRAP (mM Ferrous Equivalents)” value ([2]; 50 µg/mL)?
A: Its value is 16.09 ± 0.87 mM Ferrous Equivalents.

Q: What about the IC50 at 24 h [3] of the same compound?
A: Its IC50 at 24 h is 65 ± 2 µg/mL (≈ 215 µM).

Q: And the “reduction of O2•− production compared to the control (LPS +)” value [4]?
A: The value was “about 25%”.

Q: And the “NO levels in LPS-activated cells” value [5]?
A: Its value is “significantly reduce NO levels”.

Q: For CSCC[C@H](NC(=O)[C@H](CCCNC(=N)N)NC(=O)[C@H](Cc1c[nH]c2ccccc12)NC(=O)[C@H](CCC(N)=O)NC(=O)[C@H](Cc1c[nH]c2ccccc12)NC(=O)[C@H](CCCNC(=N)N)NC(=O)[C@H](CCCNC(=N)N)NC(=O)[C@H](CS)NC(=O)[C@H](CCCCN)NC(=O)[C@@H](N)Cc1ccccc1)C(=O)N[C@@H](CCCCN)C(=O)N[C@@H](CCCCN)C(=O)N[C@@H](CC(C)C)C(=O)NCC(=O)N[C@@H](C)C(N)=O [bLF-17-31, FKCRRWQWRMKKLGA-NH2], which IC50 [3] is on record?
A: Its IC50 is 135 ± 6 µg/mL (≈ 67.7 µM).

Q: And the IC50 [6]?
A: The IC50 was 31.6 µM.

Q: For “AKCAKFQRNMKKVRG-NH2 [aLF-17-31, AKCAKFQRNMKKVRG-NH2]”, which IC50 [6] is on record?
A: Its IC50 is 31.2 µM.

Q: With “APRKNVRWCTI-NH2 [bLF-1-11, APRKNVRWCTI-NH2]” as the compound, how does the IC50 at 24 h [3] read?
A: Its IC50 at 24 h is 290 ± 5 µg/mL.

Q: Which results are given for “GRRRRSVQWCA-NH2 [rhLF-1-11, GRRRRSVQWCA-NH2]”?
A: IC50 at 24 h [3]: 355 ± 12 µg/mL; IC50 [6]: 57.5 µM

Q: With LRPVAA as the compound, how does the “ACE-1 inhibition in vitro” value [7] read?
A: The value was “effective in inhibiting ACE-1 in vitro”.

Q: And the blood pressure [8]?
A: The blood pressure was “reducing blood pressure”.

Q: With “WKLLSKAQEKFGKNKSR-NH2 [bLF-268-284, WKLLSKAQEKFGKNKSR-NH2]” as the compound, how does the IC50 [6] read?
A: Its IC50 is > 48.8 µM.

Q: For “WNLLRQAQEKFGKDKSP-NH2 [nhLF-268-284, WNLLRQAQEKFGKDKSP-NH2]”, which IC50 [6] is on record?
A: The IC50 was 25.6 µM.
